Measured values reported in ChEMBL document CHEMBL5321278, “Discovery of Aminoratjadone Derivatives as Potent Noncovalent CRM1 Inhibitors” (J Med Chem, 2023).
pIC50, pKd: −log10 of the molar value. Blank lines part the entries; values can stand above or below the compound they belong to. Active and inactive are the calls of the source. The calls are words filed in the database; no cut-off is given here. Where a SMILES comes first, the peptide text is derived from it. The star is where a group is joined. Cbz = O=C(OCc1ccccc1)*

What was measured:
Exportin-1 [1] = target: T1, Exportin-1 (Homo sapiens, UniProt O14980); assay: Inhibition of CRM1 (unknown origin) assessed as binding of GST-tagged NES peptide
T1 sequence (O14980 whole entry): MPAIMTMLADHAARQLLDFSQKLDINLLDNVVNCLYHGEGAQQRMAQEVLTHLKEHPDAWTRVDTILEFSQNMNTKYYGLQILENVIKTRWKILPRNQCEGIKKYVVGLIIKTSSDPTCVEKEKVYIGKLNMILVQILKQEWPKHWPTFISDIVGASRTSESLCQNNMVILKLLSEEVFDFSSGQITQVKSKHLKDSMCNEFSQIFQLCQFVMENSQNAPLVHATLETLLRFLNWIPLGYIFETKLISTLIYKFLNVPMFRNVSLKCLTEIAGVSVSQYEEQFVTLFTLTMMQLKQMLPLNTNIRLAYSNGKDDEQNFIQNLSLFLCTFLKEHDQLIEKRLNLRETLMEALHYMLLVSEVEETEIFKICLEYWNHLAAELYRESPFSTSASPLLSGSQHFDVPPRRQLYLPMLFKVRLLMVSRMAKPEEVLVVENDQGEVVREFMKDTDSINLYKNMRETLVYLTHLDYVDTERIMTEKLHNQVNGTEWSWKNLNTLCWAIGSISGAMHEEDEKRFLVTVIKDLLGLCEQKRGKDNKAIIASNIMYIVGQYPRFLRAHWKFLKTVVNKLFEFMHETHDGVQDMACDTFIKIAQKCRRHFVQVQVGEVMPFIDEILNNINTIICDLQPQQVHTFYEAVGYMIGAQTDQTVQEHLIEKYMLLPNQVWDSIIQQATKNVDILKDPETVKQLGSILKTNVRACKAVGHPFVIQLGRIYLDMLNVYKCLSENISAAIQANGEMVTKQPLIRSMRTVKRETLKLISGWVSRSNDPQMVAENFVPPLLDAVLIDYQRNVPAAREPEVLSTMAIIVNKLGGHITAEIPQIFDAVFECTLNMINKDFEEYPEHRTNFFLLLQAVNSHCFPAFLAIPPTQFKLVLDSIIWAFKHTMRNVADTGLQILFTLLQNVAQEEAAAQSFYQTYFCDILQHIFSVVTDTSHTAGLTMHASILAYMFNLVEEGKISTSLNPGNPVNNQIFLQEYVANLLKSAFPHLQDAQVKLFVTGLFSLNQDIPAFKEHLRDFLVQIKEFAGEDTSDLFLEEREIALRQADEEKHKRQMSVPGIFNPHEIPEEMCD

Exportin-1 [2] = target: T1, Exportin-1; assay: Inhibition of CRM1 nuclear export in human HeLa cells assessed as CRM1 depletion at 1 uM measured after 6 hrs; assay type: cell-based
Exportin-1 [3] = target: T1, Exportin-1; assay: Inhibition of CRM1-mediated nuclear export in human HeLa cells expressing mCherry-tagged NES reporter at 1 uM incubated for 3 hrs by confocal microscopy analysis; assay type: cell-based
Exportin-1 [4] = target: T1, Exportin-1; assay: Inhibition of CRM1 nuclear export in human HeLa cells assessed as CRM1 depletion at 50 uM measured after 6 hrs; assay type: cell-based
Exportin-1 [5] = target: T1, Exportin-1; assay: Inhibition of CRM1 nuclear export in human HeLa cells assessed as CRM1 depletion measured after 6 hrs; assay type: cell-based; details: for inhibition: dose 0.1-9 µM
HCT-116 [6] = assay: Cytotoxicity against human HCT-116 cells assessed as reduction in cell viability incubated for 72 hrs by CCK-8 assay; assay type: functional, cell-based; details: HCT-116, 72 h
HCT-116 [7] = assay: Cytotoxicity against SiRNA mediated CRM1 knockdown human HCT-116 cells assessed as reduction in cell viability at 0.3 to 1 uM incubated for 72 hrs by CCK-8 assay; assay type: functional, cell-based; details: dose 0.3-1 µM
Exportin-1 [8] = target: T1, Exportin-1; assay: Inhibition of CRM1-mediated nuclear export in human HCT-116 cells assessed as inhibition of nuclear export of cargoes at 1 uM; assay type: cell-based
Exportin-1 [9] = target: T1, Exportin-1; assay: Non-covalent inhibition of CRM1 (unknown origin) assessed as reversal of GST-tagged NES peptide binding pretreated with CRM1 followed by compound addition and measured after 2 hrs
HeLa [10] = assay: Downregulation of CRM1 expression in human HeLa cells at 9 uM incubated for 6 hrs by Western blot analysis; assay type: functional, cell-based
Exportin-1 [11] = target: T1, Exportin-1; assay: Inhibition of CRM1-mediated nuclear export in human HeLa cells expressing mCherry-tagged NES reporter incubated for 3 hrs by confocal microscopy analysis; assay type: cell-based; details: for inhibition: dose 0.09-3 µM
Exportin-1 [12] = target: T1, Exportin-1; assay: Non-covalent inhibition of CRM1 (unknown origin) assessed as reversal of GST-tagged NES peptide binding
[13] = test system: Exportin-1 (Homo sapiens), O14980 [C528S]; assay: Inhibition of CRM1 C528S mutant-mediated nuclear export in human HeLa cells expressing mCherry-tagged NES reporter at 1 uM incubated for 3 hrs by confocal microscopy analysis; assay type: cell-based
Exportin-1 (Homo sapiens), O14980 [C528S], sequence (O14980 whole entry C528S): as the sequence (O14980 whole entry) above, with C528S counted along it

HeLa [14] = assay: Downregulation of CRM1 mRNA expression in human HeLa cells at 9 uM incubated for 6 hrs; assay type: functional, cell-based
RKO [15] = assay: Cytotoxicity against SiRNA mediated CRM1 knockdown human RKO cells assessed as reduction in cell viability at 0.3 to 1 uM incubated for 72 hrs by CCK-8 assay; assay type: functional, cell-based; details: dose 0.3-1 µM
RKO [16] = assay: Cytotoxicity against human RKO cells assessed as reduction in cell viability incubated for 72 hrs by CCK-8 assay; assay type: functional, cell-based
[17] = test system: Exportin-1 (Homo sapiens), O14980 [C528S]; assay: Inhibition of CRM1 C528S mutant-mediated nuclear export in human HCT-116 cells assessed as inhibition of nuclear export of cargoes at 1 uM; assay type: cell-based
Exportin-1 [18] = target: T1, Exportin-1; assay: Inhibition of CRM1 nuclear export in human HeLa cells assessed as CRM1 depletion at 10 uM measured after 6 hrs; assay type: cell-based
RKO [19] = assay: Induction of apoptosis in human RKO cells assessed as viable cells at 1 uM measured after 24 hrs by AnnexinV-FITC/propidium iodide staining based flow cytometric analysis (reference value: 92.51%); assay type: functional; details: read-out: Activity
RKO [20] = assay: Induction of apoptosis in human RKO cells assessed as necrotic at 0.5 uM measured after 24 hrs by AnnexinV-FITC/propidium iodide staining based flow cytometric analysis (reference value: 1%); assay type: functional
RKO [21] = assay: Induction of apoptosis in human RKO cells assessed as early apoptotic at 1 uM measured after 24 hrs by AnnexinV-FITC/propidium iodide staining based flow cytometric analysis (reference value: 1.79%); assay type: functional
RKO [22] = assay: Induction of apoptosis in human RKO cells assessed as necrotic at 1 uM measured after 24 hrs by AnnexinV-FITC/propidium iodide staining based flow cytometric analysis (reference value: 1%); assay type: functional
HCT-116 [23] = assay: Induction of apoptosis in human HCT-116 cells assessed as increase in cleaved PARP-1 level by Western blot analysis; assay type: functional, cell-based
Exportin-1 [24] = target: T1, Exportin-1; assay: Binding affinity to CRM1 (unknown origin) assessed as dissociation constant by microscale thermophoresis assay
HCT-116 [25] = assay: Induction of apoptosis in human HCT-116 cells assessed as necrotic at 1 uM measured after 24 hrs by AnnexinV-FITC/propidium iodide staining based flow cytometric analysis (reference value: 2.22%); assay type: functional
HCT-116 [26] = assay: Induction of apoptosis in human HCT-116 cells assessed as late apoptotic at 1 uM measured after 24 hrs by AnnexinV-FITC/propidium iodide staining based flow cytometric analysis (reference value: 4.91%); assay type: functional
HCT-116 [27] = assay: Induction of apoptosis in human HCT-116 cells assessed as late apoptotic at 0.5 uM measured after 24 hrs by AnnexinV-FITC/propidium iodide staining based flow cytometric analysis (reference value: 4.91%); assay type: functional
RKO [28] = assay: Induction of apoptosis in human RKO cells assessed as late apoptotic at 1 uM measured after 24 hrs by AnnexinV-FITC/propidium iodide staining based flow cytometric analysis (reference value: 4.70%); assay type: functional
HCT-116 [29] = assay: Induction of apoptosis in human HCT-116 cells assessed as necrotic at 0.5 uM measured after 24 hrs by AnnexinV-FITC/propidium iodide staining based flow cytometric analysis (reference value: 2.22%); assay type: functional
RKO [30] = assay: Induction of apoptosis in human RKO cells assessed as late apoptotic at 0.5 uM measured after 24 hrs by AnnexinV-FITC/propidium iodide staining based flow cytometric analysis (reference value: 4.70%); assay type: functional
RKO [31] = assay: Inhibition of colony formation in human RKO cells assessed as decrease in colonies upto 0.5 uM incubated for 72 hrs by crystal violet staining based assay; assay type: functional, cell-based
Exportin-1 [32] = target: T1, Exportin-1; assay: Binding affinity to CRM1 in human HCT-116 cells assessed as thermal stabilization at 50 uM at 50 to 68 degreeC incubated for 3 mins by […] analysis; assay type: cell-based
HCT-116 [33] = assay: Induction of apoptosis in human HCT-116 cells assessed as early apoptotic at 1 uM measured after 24 hrs by AnnexinV-FITC/propidium iodide staining based flow cytometric analysis (reference value: 3.55%); assay type: functional
HCT-116 [34] = assay: Induction of apoptosis in human HCT-116 cells assessed as early apoptotic at 0.5 uM measured after 24 hrs by AnnexinV-FITC/propidium iodide staining based flow cytometric analysis (reference value: 3.55%); assay type: functional
RKO [35] = assay: Induction of apoptosis in human RKO cells assessed as increase in cleaved PARP-1 level by Western blot analysis; assay type: functional, cell-based
RKO [36] = assay: Induction of apoptosis in human RKO cells assessed as viable cells at 0.5 uM measured after 24 hrs by AnnexinV-FITC/propidium iodide staining based flow cytometric analysis (reference value: 92.51%); assay type: functional; details: read-out: Activity
HCT-116 [37] = assay: Induction of apoptosis in human HCT-116 cells assessed as viable cells at 0.5 uM measured after 24 hrs by AnnexinV-FITC/propidium iodide staining based flow cytometric analysis (reference value: 89.32%); assay type: functional; details: read-out: Activity
HCT-116 [38] = assay: Induction of apoptosis in human HCT-116 cells assessed as viable cells at 1 uM measured after 24 hrs by AnnexinV-FITC/propidium iodide staining based flow cytometric analysis (reference value: 89.32%); assay type: functional; details: read-out: Activity
RKO [39] = assay: Induction of apoptosis in human RKO cells assessed as early apoptotic at 0.5 uM measured after 24 hrs by AnnexinV-FITC/propidium iodide staining based flow cytometric analysis (reference value: 1.79%); assay type: functional
HCT-116 [40] = assay: Inhibition of colony formation in human HCT-116 cells assessed as decrease in colonies upto 0.5 uM incubated for 72 hrs by crystal violet staining based assay; assay type: functional, cell-based

SMILES: C/C=C/[C@@H]1O[C@H]([C@@H](N)/C=C/C=C(\C)C[C@@H](C)/C=C(C)\C=C\[C@H](O)C[C@@H](CC(=O)NCCO)NCCO)C[C@H](O)[C@@H]1C
inhibition (Exportin-1 [1]): inactive | inhibition (Exportin-1 [2]): inactive

SMILES: O=C(/C=C\n1cnc(-c2cc(C(F)(F)F)cc(C(F)(F)F)c2)n1)NNc1cnccn1
inhibition (Exportin-1 [2]): inactive

SMILES: CC(C)C[C@@H](C=O)NC(=O)[C@H](CC(C)C)NC(=O)[C@H](CC(C)C)NC(=O)OCc1ccccc1 (Cbz-Leu-Leu-Leu-aldehyde)
inhibition (Exportin-1 [4]): Active

SMILES: C/C=C/[C@@H]1O[C@H]([C@@H](N)/C=C/C=C(\C)C[C@@H](C)/C=C(C)\C=C\[C@H](O)C[C@H](N)CC(=O)OC)C[C@H](O)[C@@H]1C
pIC50 (Exportin-1 [5]): 6.26 | inhibition (Exportin-1 [5]): Active | pIC50 (HCT-116 [6]): 6.49 | Activity (HCT-116 [7]): Active | inhibition (Exportin-1 [8]): Active | inhibition (Exportin-1 [9]): Active | Activity (HeLa [10]): inactive | pIC50 (Exportin-1 [11]): 6.47 | inhibition (Exportin-1 [11]): Dose-Dependent Effect | inhibition (Exportin-1 [12]): Active | inhibition (Exportin-1 [1]): Active | inhibition [13]: Active | Activity (HeLa [14]): inactive | Activity (RKO [15]): Active | pIC50 (RKO [16]): 6.52 | inhibition [17]: inactive

SMILES: CCN(CC)CCCC(C)Nc1ccnc2cc(Cl)ccc12 (configuration not stated)
inhibition (Exportin-1 [18]): Active

The next lines start with results.

inhibition (Exportin-1 [3]): inactive | inhibition (Exportin-1 [1]): inactive | inhibition (Exportin-1 [2]): inactive
SMILES: C/C=C/[C@@H]1O[C@H]([C@@H](N)/C=C/C=C(\C)C[C@@H](C)/C=C(C)\C=C\[C@H](O)C[C@H](N)CC(N)=O)C[C@H](O)[C@@H]1C

pIC50 (Exportin-1 [5]): 6.57 | inhibition (Exportin-1 [5]): Active | pKd (Exportin-1 [24]): 5.34 | inhibition (Exportin-1 [8]): Active | pIC50 (Exportin-1 [11]): 6.55 | inhibition (Exportin-1 [11]): Dose-Dependent Effect | inhibition (Exportin-1 [12]): Active | inhibition (Exportin-1 [1]): Active | inhibition [13]: Active | Activity (Exportin-1 [32]): Active | inhibition [17]: inactive
SMILES: C/C=C/[C@@H]1O[C@H]([C@H](N)/C=C/C=C(\C)C[C@@H](C)/C=C(C)\C=C\[C@H](O)C[C@H](N)CC(=O)OC)C[C@H](O)[C@@H]1C
pIC50 (HCT-116 [6]): 6.92 | viability at 1 µM (RKO [19]): 70.9% | Activity (RKO [20]): 6.09% | Activity (RKO [21]): 2.78% | Activity (RKO [22]): 7.93% | Activity (HCT-116 [23]): Active | Activity (HCT-116 [7]): Active | Activity (HCT-116 [25]): 8.17% | Activity (HCT-116 [26]): 25.08% | Activity (HCT-116 [27]): 12.47% | Activity (HeLa [10]): inactive | Activity (RKO [28]): 18.43% | Activity (HCT-116 [29]): 3.75% | Activity (RKO [30]): 11.78% | inhibition (RKO [31]): Active | Activity (HCT-116 [33]): 4.32% | Activity (HeLa [14]): inactive | Activity (HCT-116 [34]): 5.73% | Activity (RKO [35]): Active | Activity (RKO [15]): Active | viability at 0.5 µM (RKO [36]): 78.8% | viability at 0.5 µM (HCT-116 [37]): 78% | pIC50 (RKO [16]): 6.72 | viability at 1 µM (HCT-116 [38]): 62.4% | Activity (RKO [39]): 3.34% | inhibition (HCT-116 [40]): Active

pKd (Exportin-1 [24]): 5.23
SMILES: C/C=C/[C@@H]1O[C@H]([C@H](N)/C=C/C=C(\C)C[C@@H](C)/C=C(C)\C=C\[C@H](O)C[C@H](N)CC(=O)O)C[C@H](O)[C@@H]1C
